This is an account of results in patent US9969738B2, “N-acyl-(3-substituted)-5,6,7,8-tetrahydro-[1,2,4]triazolo[4,3-a]pyrazines as selective NK-3 receptor antagonists, pharmaceutical composition, methods for use in NK-3 receptor-mediated disorders” (EUROSCREEN SA, priority 2013, dated 2018).

Structures are written as SMILES.

Data set [1] has as its target T1, human NK-3 receptor (Homo sapiens (Human), UniProt P29371). The data set can be described thus: 3H-SB222200 binding competition assay with human NK-3 receptor. As to conditions: CHO cell membranes, 5 nM 3H-SB222200; Ki by Cheng-Prusoff; read-out: hNK-3 (Ki). How it is done:
The affinity of compounds of the invention for the human NK-3 receptor was determined by measuring the ability of compounds of the invention to competitively and reversibly displace a well-characterized NK-3 radioligand in a concentration-dependent manner.
^3H-SB222200 Binding Competition Assay with Human NK-3 Receptor
The ability of compounds of the invention to inhibit the binding of the NK-3 receptor selective antagonist ^3H-SB222200 was assessed by an in vitro radioligand binding assay. Membranes were prepared from Chinese hamster ovary recombinant cells stably expressing the human NK-3 receptor. The membranes were incubated with 5 nM ^3H-SB222200 (ARC) in a HEPES 25 mM/NaCl 0.1M/CaCl2 1 mM/MgCl2 5 mM/BSA 0.5%/Saponin 10 μg/ml buffer at pH 7.4 and various concentrations of compounds of the invention. The amount of ^3H-SB222200 bound to the receptor was determined after filtration by the quantification of membrane associated radioactivity using the TopCount-NXT reader (Packard).

A short description of data set [2]: Determination of plasma protein binding (rapid equilibrium dialysis). Type of data set: in vitro ADME. The settings on record: bound drug fraction to plasma protein; equilibrium dialysis 4 hours at 37° C. An excerpt:
Determination of Plasma Protein Binding
The pharmacokinetic and pharmacodynamic properties of chemicals/drugs are largely a function of the reversible binding of chemicals to plasma or serum proteins. […] Consequently, the extent of the plasma protein binding (PPB) of a compound influences its action as well as its distribution and elimination.
The determination of plasma protein binding (PPB) of a compound is enabled by equilibrium dialysis, an accepted and standard method for reliable estimation of the non-bound drug fraction in plasma. RED (Rapid Equilibrium Dialysis) device insert is made of two side-by-side chambers separated by an O-ring-sealed vertical cylinder of dialysis membrane (MWCO ˜8,000). […] After 4 hours incubation at 37° C. under shaking, an aliquot is removed from each chamber and analyzed by a LC-MS/MS procedure enables the determination of both free and bound drug.
The “free fraction” may be calculated as 100%−% rPPB (i.e. the complementary percentage of that disclosed in Table 4, corresponding to the drug concentration that is unbound and therefore available to engage biological target and elicit pharmacological activity).
In general terms: In equilibrium dialysis only unbound substance equilibrates across the membrane.

Data set [3] concerns the target T1, human NK-3 receptor. The data set can be described thus: Aequorin functional assay with human NK-3 receptor (antagonist testing). Type of data set: cell-based. The settings on record: CHO cells expressing human NK-3 receptor and apoaequorin; agonist NKA at EC80 (3 nM); read-out: hNK-3 - AEQ (antagonist IC50). The method, then: Aequorin Assay with Human NK-3 Receptor
Changes in intracellular calcium levels are a recognized indicator of G protein-coupled receptor activity. The efficacy of compounds of the invention to inhibit NKA-mediated NK-3 receptor activation was assessed by an in vitro Aequorin functional assay. Chinese Hamster Ovary recombinant cells expressing the human NK-3 receptor and a construct that encodes the photoproteinapoaequorin were used for this assay. In the presence of the cofactor coelenterazine, apoaequorin emits a measurable luminescence that is proportional to the amount of intracellular (cytoplasmic) free calcium.
The antagonist activity of compounds of the invention is measured following pre-incubation (3 minutes) of the compound (at various concentrations) with the cells, followed by addition of the reference agonist (NKA) at a final concentration equivalent to the EC80 (3 nM) and recording of emitted light (FDSS 6000 Hamamatsu) over the subsequent 90-second period. The intensity of the emitted light is integrated using the reader software. Compound antagonist activity is measured based on the concentration-dependent inhibition of the luminescence response to the addition of Neurokinin A.
The IC50 values shown in table 2 indicate that compounds of the invention are potent NK-3 antagonist compounds.

For the next data set, the target named is human NK-1 receptor (Homo sapiens (Human), UniProt P25103). Kind of data set: Selectivity assay: [3H] substance P binding to human NK-1 receptor. The settings on record: CHO cell membranes, 2 nM [3H] substance P; read-out: hNK-1 (Ki). The method, then:
(§1) Selectivity of the compounds of the invention was determined over the other human NK receptors, namely NK-1 and NK-2 receptors.
The affinity of compounds of the invention for the NK-1 receptor was evaluated in CHO recombinant cells which express the human NK-1 receptor. Membrane suspensions were prepared from these cells. The following radioligand: [^3H] substance P (PerkinElmer Cat#NET111520) was used in this assay. Binding assays were performed in a 50 mM Tris/5 mM MnCl2/150 mM NaCl/0.1% BSA at pH 7.4. Binding assays consisted of 25 μl of membrane suspension (approximately 5 μg of protein/well in a 96 well plate), 50 μl of compound or reference ligand (Substance P) at increasing concentrations (diluted in assay buffer) and 2 nM [^3H] substance P. The plate was incubated 60 min at 25° C. in a water bath and then filtered over GF/C filters (Perkin Elmer, 6005174, presoaked in 0.5% PEI for 2 h at room temperature) with a Filtration unit (Perkin Elmer). The radioactivity retained on the filters was measured by using the TopCount-NXT reader (Packard).

In a further data set the target is human NK-2 receptor (Homo sapiens (Human), UniProt P21452). The data set can be described thus: Selectivity assay: [125I]-Neurokinin A binding to human NK-2 receptor. As to conditions: CHO cell membranes, 0.1 nM [125I]-Neurokinin A; read-out: hNK-2 (Ki). The method, then:
as §1
The affinity of compounds of the invention for the NK-2 receptor was evaluated in CHO recombinant cells which express the human NK-2 receptor. Membrane suspensions were prepared from these cells. The following radioligand [^125I]-Neurokinin A (PerkinElmer Cat#NEX252) was used in this assay. Binding assays were performed in a 25 mM HEPES/1 mM CaCl2/5 mM MgCl2/0.5% BSA/10 μg/ml saponin, at pH 7.4. Binding assays consisted of 25 μl of membrane suspension (approximately 3.75 μg of protein/well in a 96 well plate), 50 μl of compound or reference ligand (Neurokinin A) at increasing concentrations (diluted in assay buffer) and 0.1 nM [^125I]-Neurokinin A. The plate was incubated 60 min at 25° C. in a water bath and then filtered over GF/C filters (Perkin Elmer, 6005174, presoaked in assay buffer without saponine for 2 h at room temperature) with a Filtration unit (Perkin Elmer). The radioactivity retained on the filters was measured by using the TopCount-NXT reader (Packard).

In the next data set the target is hERG channel (Homo sapiens (Human), UniProt Q12809). The data set can be described thus: hERG inhibition assay (manual patch-clamp, HEK 293 cells). The data set is classed as cell-based. As to conditions: 5 minutes of exposure, read-out: CardioSafety (hERG IC50). The method, then:
IKr current inhibition accounts for the vast majority of known cases of drug-induced QT-prolongation. […] Whole-cell currents (acquisition by manual patch-clamp) elicited during a voltage pulse were recorded in baseline conditions and following application of tested compounds (5 minutes of exposure). The concentrations of tested compounds (0.3 μM; 3 μM; 10 μM; 30 μM) reflect a range believed to exceed the concentrations at expected efficacy doses in preclinical models. […] The current density recorded were normalized against the baseline conditions and corrected for solvent effect and time-dependent current run-down using experimental design in test compound free conditions.
On the technique in general: The hERG channel carries a current that helps repolarise heart muscle cells.

In another data set the test system is circulating LH levels. Kind of data set: Castrated male rat model, circulating levels of luteinizing hormone (LH), oral dosing. The data set is classed as in vivo. As to conditions: castrated male SD rats, single oral dose less than or equal to 30 mg/kg, p<0.05. The method, then: In Vivo Assay to Assess Compound Activity in Rat (Oral Dosing) The effect of compounds of the invention to inhibit luteinizing hormone (LH) secretion is determined by the following biological studies. Castrated Male Rat Model to Assess the Effect of Compound of Invention on Circulating Levels of Luteinizing Hormone (LH) In humans and rodents, castration is well-precedented to permit heightened, persistent GnRH signaling and consequent elevation of circulating LH. Thus, a castrated rat model is used to provide a broad index for measurement of LH inhibition as a marker of test compound inhibition of the GnRH signaling pathway. Castrated adult male Sprague-Dawley (SD) rats (150-175 g,) were purchased from Janvier (St Berthevin, France). All animals were housed 2 per cage in a temperature-controlled room (22±2° C.) and 50±5% relative humidity with a 12 hour/12 hour light/dark cycles (lights off at 6 h00 pm). The animals were allowed 3 weeks of postoperative recovery prior to study. Animals were handled on a daily basis. Standard diet and tap water were provided ad libitum. Animal cage litters were changed once a week. On the study day, animals were acclimated to the procedure room for a period of one hour prior to the initiation of the experiment. […] Serum LH levels were determined using radioimmunoas say kit from RIAZEN—Rat LH, Zentech (Liège, Belgium). […]

T1 sequence (P29371 whole entry): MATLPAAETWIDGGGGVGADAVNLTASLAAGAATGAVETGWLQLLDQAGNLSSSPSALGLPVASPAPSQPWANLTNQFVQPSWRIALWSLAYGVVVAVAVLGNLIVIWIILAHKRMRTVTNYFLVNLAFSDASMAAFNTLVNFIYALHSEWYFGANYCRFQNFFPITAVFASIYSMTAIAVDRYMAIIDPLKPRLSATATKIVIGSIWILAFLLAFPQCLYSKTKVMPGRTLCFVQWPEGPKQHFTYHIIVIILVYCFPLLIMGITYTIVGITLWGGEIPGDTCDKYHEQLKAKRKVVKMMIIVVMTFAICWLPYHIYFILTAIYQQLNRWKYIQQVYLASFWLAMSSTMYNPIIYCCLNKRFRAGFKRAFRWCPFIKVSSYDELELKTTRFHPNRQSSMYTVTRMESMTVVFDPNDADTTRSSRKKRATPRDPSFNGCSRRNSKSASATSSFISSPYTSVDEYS
Chain of human NK-1 receptor (P25103 whole entry): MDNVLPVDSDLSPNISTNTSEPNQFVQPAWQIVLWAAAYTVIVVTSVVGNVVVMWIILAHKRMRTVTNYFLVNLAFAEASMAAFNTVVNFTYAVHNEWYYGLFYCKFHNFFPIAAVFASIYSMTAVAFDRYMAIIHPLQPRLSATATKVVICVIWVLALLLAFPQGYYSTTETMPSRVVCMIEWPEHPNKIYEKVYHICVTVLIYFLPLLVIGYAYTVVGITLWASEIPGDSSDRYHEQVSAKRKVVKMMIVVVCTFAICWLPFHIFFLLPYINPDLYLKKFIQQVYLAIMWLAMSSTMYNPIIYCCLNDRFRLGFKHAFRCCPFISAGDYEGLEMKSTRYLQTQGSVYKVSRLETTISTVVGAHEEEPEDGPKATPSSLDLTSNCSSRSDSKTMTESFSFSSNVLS
Chain of human NK-2 receptor (P21452 whole entry): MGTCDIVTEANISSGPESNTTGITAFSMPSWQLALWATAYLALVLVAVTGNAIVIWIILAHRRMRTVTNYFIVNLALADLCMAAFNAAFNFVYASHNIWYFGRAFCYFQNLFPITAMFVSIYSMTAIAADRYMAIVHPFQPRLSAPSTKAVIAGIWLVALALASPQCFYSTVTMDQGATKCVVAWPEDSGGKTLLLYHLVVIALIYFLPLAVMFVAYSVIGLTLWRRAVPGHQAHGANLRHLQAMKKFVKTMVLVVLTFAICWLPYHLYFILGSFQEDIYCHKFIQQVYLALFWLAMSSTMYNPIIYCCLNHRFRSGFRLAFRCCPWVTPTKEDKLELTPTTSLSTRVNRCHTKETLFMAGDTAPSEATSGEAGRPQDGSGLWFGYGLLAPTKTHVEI
Chain of hERG channel (Q12809 whole entry): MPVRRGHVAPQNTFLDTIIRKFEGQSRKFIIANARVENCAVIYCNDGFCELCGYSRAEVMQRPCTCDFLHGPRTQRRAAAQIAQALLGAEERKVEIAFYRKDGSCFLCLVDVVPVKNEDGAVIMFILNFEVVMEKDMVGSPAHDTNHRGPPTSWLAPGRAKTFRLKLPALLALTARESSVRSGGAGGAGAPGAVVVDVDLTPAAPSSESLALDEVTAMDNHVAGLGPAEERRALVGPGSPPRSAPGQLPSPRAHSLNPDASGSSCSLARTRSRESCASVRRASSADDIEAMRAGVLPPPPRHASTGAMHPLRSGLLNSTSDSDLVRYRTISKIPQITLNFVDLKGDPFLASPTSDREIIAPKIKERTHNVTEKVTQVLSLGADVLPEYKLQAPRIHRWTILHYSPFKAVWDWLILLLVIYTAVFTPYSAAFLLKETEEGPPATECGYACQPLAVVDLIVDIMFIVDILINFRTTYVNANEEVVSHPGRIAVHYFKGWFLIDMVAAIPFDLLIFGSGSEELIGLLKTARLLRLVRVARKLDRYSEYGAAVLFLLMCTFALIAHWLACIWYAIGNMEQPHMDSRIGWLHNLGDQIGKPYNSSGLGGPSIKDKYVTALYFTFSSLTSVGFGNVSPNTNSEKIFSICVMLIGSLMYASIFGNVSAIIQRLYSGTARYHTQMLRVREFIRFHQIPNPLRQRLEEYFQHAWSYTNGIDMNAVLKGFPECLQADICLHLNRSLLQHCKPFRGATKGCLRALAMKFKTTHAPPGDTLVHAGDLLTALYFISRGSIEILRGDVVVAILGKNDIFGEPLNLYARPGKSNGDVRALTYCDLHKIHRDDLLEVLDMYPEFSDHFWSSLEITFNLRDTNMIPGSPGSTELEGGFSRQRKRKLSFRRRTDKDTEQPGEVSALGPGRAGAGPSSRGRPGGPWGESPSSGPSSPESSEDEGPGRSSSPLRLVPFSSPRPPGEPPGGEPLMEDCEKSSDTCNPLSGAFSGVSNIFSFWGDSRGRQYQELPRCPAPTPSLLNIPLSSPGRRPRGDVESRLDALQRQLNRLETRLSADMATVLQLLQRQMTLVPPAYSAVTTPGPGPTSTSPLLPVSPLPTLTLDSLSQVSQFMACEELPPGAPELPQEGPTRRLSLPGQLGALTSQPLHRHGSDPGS

In general, Ki refers to a measure of affinity in units of concentration, obtained from inhibition or displacement. As a reminder, the IC50 is the concentration that gives 50% inhibition. For `Cc1nsc(-c2nnc3n2CCN(C(=O)c2ccc(Cl)cc2)C3)n1` [Compound 2, (4-chlorophenyl)(3-(3-methyl-1,2,4-thiadiazol-5-yl)-5,6-dihydro-[1,2,4]triazol[4,3-a]pyrazin-7(8H)-yl)methanone], the figures for the Ki at human NK-3 receptor [1], at human NK-1 receptor and at human NK-2 receptor were 99 nM, > 30000 nM and > 30000 nM, respectively. In data set [2], the “Exposure (% rPPB)” value was determined as 49%. In addition, the IC50 was determined as 140 nM on human NK-3 receptor [3] and 35000 nM on hERG channel.
In the case of `Cc1nsc(-c2nnc3n2CCN(C(=O)c2ccc(F)c(F)c2F)C3)n1` [Compound 7, (3-(3-methyl-1,2,4-thiadiazol-5-yl)-5,6-dihydro-[1,2,4]triazolo[4,3-a]pyrazin-7(8H)-yl)(2,3,4-trifluorophenyl)methanone], the inhibition constant (Ki) on human NK-3 receptor [1] is 240 nM; at human NK-1 receptor it was > 30000 nM; at human NK-2 receptor it was > 30000 nM. In addition, the “Exposure (% rPPB)” value in data set [2] is reported as 25%. Also, at human NK-3 receptor [3], the IC50 came out at 470 nM.
On to `Cc1nsc(-c2nnc3n2CCN(C(=O)c2ccc(F)c(Cl)c2)C3)n1` [Compound 4, (3-chloro-4-fluorophenyl)(3-(3-methyl-1,2,4-thiadiazol-5-yl)-5,6-dihydro-[1,2,4]triazol[4,3-a]pyrazin-7(8H)-yl)methanone], for which the inhibitory constant (Ki) is 130 nM at human NK-3 receptor [1], > 30000 nM on human NK-1 receptor and > 30000 nM at human NK-2 receptor. In data set [2], the “Exposure (% rPPB)” value was found to be 52%. In addition, the concentration for half-maximal inhibition (IC50) at human NK-3 receptor [3] was 200 nM.
Consider `Cc1nsc(-c2nnc3n2CCN(C(=O)c2ccc(Cl)c(F)c2)C3)n1` [Compound 3, (4-chloro-3-fluorophenyl)(3-(3-methyl-1,2,4-thiadiazol-5-yl)-5,6-dihydro-[1,2,4]triazol[4,3-a]pyrazin-7(8H)-yl)methanone], for which the Ki on human NK-3 receptor [1] was 93 nM; on human NK-1 receptor it was > 30000 nM; on human NK-2 receptor, > 30000 nM. In data set [2], the “Exposure (% rPPB)” value was found to be 54%. Further, the concentration for half-maximal inhibition (IC50) on human NK-3 receptor [3] stood at 140 nM.
With `Cc1nsc(-c2nnc3n2CCN(C(=O)c2cc(F)c(F)c(F)c2)C3)n1` [Compound 6, (3-(3-methyl-1,2,4-thiadiazol-5-yl)-5,6-dihydro-[1,2,4]triazolo[4,3-a]pyrazin-7(8H)-yl)(3,4,5-trifluorophenyl)methanone], the inhibitory constant (Ki) at human NK-3 receptor [1] was 170 nM; at human NK-1 receptor it was > 30000 nM; at human NK-2 receptor, > 30000 nM. In addition, the “Exposure (% rPPB)” value in data set [2] came out at 27%. At human NK-3 receptor [3], the IC50 is 330 nM.
`Cc1nsc(-c2nnc3n2CCN(C(=O)c2ccc(F)cc2)C3)n1` [Compound 1, (4-fluorophenyl)(3-(3-methyl-1,2,4-thiadiazol-5-yl)-5,6-dihydro-[1,2,4]triazolo[4,3-a]pyrazin-7(8H)-yl)methanone]: the values for the inhibitory constant (Ki) on human NK-3 receptor [1], on human NK-1 receptor and on human NK-2 receptor were 140 nM, > 30000 nM and > 30000 nM, respectively. In addition, the IC50 on human NK-3 receptor [3] came out at 180 nM. Also, in the data set on circulating LH levels, the “suppression of circulating LH levels” value was “significantly suppressed circulating LH levels”.
Consider `Cc1nsc(-c2nnc3n2CCN(C(=O)c2ccc(F)c(F)c2)C3)n1` [Compound 5, (3,4-difluorophenyl)(3-(3-methyl-1,2,4-thiadiazol-5-yl)-5,6-dihydro-[1,2,4]triazol[4,3-a]pyrazin-7(8H)-yl)methanone], for which the Ki was 170 nM at human NK-3 receptor [1], > 30000 nM on human NK-1 receptor and > 30000 nM on human NK-2 receptor. Besides, in data set [2], the “Exposure (% rPPB)” value was found to be 28%. Besides, at human NK-3 receptor [3], the half-inhibitory concentration (IC50) was determined as 250 nM.
